Test results published in patent US9303021B2, “Methods for treating cognitive disorders using 3-aryl-3-hydroxy-2-amino-propionic acid amides, 3-heteroaryl-3-hydroxy-2-amino-propionic acid amides and related compounds” (Allergan, Inc., priority 2007, dated 2016).

Tests used:
C57B/6 male mice = assay: Passive (inhibitory) avoidance task; format: in vivo; conditions: for Training latency Day 0 (latency to enter the dark/shock compartment): Day 0 is pre-treatment, N = 6/group; for Training latency Day 0 (latency to enter the dark/shock compartment) / Testing latency Day 1 (latency to enter the dark/shock compartment) / Testing latency Day 4 (latency to enter the dark/shock compartment) / Testing latency Day 7 (latency to enter the dark/shock compartment): in s; for Testing latency Day 1 (latency to enter the dark/shock compartment) / Testing latency Day 4 (latency to enter the dark/shock compartment) / Testing latency Day 7 (latency to enter the dark/shock compartment): max trial 180 sec; for memory for the shock-associated environment: IP post-training injections, young mice, versus vehicle
Source text: (§1) The passive avoidance task exploits the tendency for rodents to avoid environments previously associated with an aversive stimulus (e.g. shock) and is therefore a reliable measure of emotional memory. The Morris water maze (MWM) task, a test of spatial learning and memory, requires that the animal learns the spatial locations of various extra-maze cues in order to accurately locate an escape platform that is hidden beneath the surface of the water in a water tank.
Table 2, below, indicates the effects of compounds of the invention in a passive avoidance task (latency to enter the dark/shock compartment as dependent variable). Data were analyzed with One-Way ANOVAs followed by Bonferroni-corrected post-hoc measures (required P value dependent upon number of comparisons). The table below includes data from Vehicle-treated mice and mice treated with Compound A and Compound B.
All treatments were administered IP immediately post-training.
Passive Inhibitory Avoidance
C57B/6 male mice (20-25 g; n=6-8/group) were used in this study.
One Day 0, animals were individually placed in the bright side of a 2-chambered inhibitory avoidance box. Mice were given 35 seconds to acclimate after which a door between the two compartments was lifted and the animals were allowed to cross over into the dark compartment. Once they crossed over, the gate would close and the animal would receive a mild (0.15 mA, 2 sec) footshock. Memory retention for the shock-associated environment was evaluated 24 hours (Day 1), 4 (Day 4) and 7 (Day 7) days later. On each of the three memory retention tests (Days 1, 4, and 7), the mouse was given 15 seconds to acclimate before the gate was lifted. Latency to enter the dark (shock) compartment was measured and considered an index of passive fear avoidance. Maximum trial length=180 sec.

aged rats = assay: Morris water maze task; format: in vivo
Source text: as §1
Table 3, below, indicates the effects of Compound C in the Morris water maze task (mean escape latencies across testing days are shown).
Data were analyzed with a Mann-Whitney U Test. Mean escape latency indicates the group mean over three sessions to escape onto the hidden platform. Data are shown for days 7-11 (the water maze training days); animals were dosed twice daily (PO) with 10 mg/kg Compound No. 1 or vehicle (as indicated) on Days 1-6 prior to water maze training.
The Morris Maze consisted of a circular water tank (150 cm in diameter) filled with water and maintained at 27° C. with an escape platform (15 cm in diameter) 18 cm from the perimeter always in the same position 2 cm beneath the surface of the water. The water was made opaque by addition of a non-toxic coloring agent rendering the platform invisible. The testing was performed under light of moderate intensity.
The animals were given 5 training sessions over 5 consecutive days. Each training session consisted of 3 consecutive trials in the Morris Maze separated by 120 seconds. For each trial the animal was placed in the maze at one of two starting points equidistant from the escape platform and allowed to find the escape platform. The animal was left on the escape platform for 60 seconds followed by a 60-second rest in an individual cage before starting a new trial. […] During the 3 trials the animals started the maze from the different starting points in a randomly determined order per animal.
The trials were video-recorded and the behavior of the animals was analyzed using a video-tracking system (Panlab: Smart). The principal measure taken was the escape latency (time to find the hidden platform) at each trial. Additional measures (path length (distance traveled to find the hidden platform) and average speed) were also measured.
Aged animals show amnesia in this task as indicated by a lower capacity to reduce their escape latencies from trial to trial.
15 aged rats were studied per group. The experiment also included a young control group. The test was performed blind.
Compound C was evaluated at the dose of 10 mg/kg, administered p.o., and compared with a vehicle control group. The animals received the assigned treatment twice daily for 6 days prior to water-maze training. Twice daily administration continued during training, with one administration 60 minutes before each training session and the second administration between either 8.30-9.30 am or 4:30-5:30 pm, whichever was furthest from the training session for that particular animal.
The experiment therefore included 3 groups.
Data were analyzed by comparing treated groups with aged control using Mann Whitney U tests. In addition, the data were submitted to a two-factor analysis of variance (with age and session as factors, with repeated measures for session).

[1] = 1 mg/kg IP given immediately post-training
[2] = 1 mg/kg IP immediately post-training
[3] = 10 mg/kg IP given immediately post-training
[4] = 10 mg/kg IP immediately post-training

N[C@@H](C(=O)N1CCCC1)[C@@H](O)c1ccncc1 [Compound A]
Training latency Day 0 (latency to enter the dark/shock compartment) (C57B/6 male mice; [1]): 14.26 | Testing latency Day 1 (latency to enter the dark/shock compartment) (C57B/6 male mice; [2]): 64.34 | Testing latency Day 4 (latency to enter the dark/shock compartment) (C57B/6 male mice; [2]): 65.52 | Testing latency Day 7 (latency to enter the dark/shock compartment) (C57B/6 male mice; [2]): 54.32 | Training latency Day 0 (latency to enter the dark/shock compartment) (C57B/6 male mice; [3]): 9.88 | Testing latency Day 1 (latency to enter the dark/shock compartment) (C57B/6 male mice; [4]): 82.58 | Testing latency Day 4 (latency to enter the dark/shock compartment) (C57B/6 male mice; [4]): 58.33 | Testing latency Day 7 (latency to enter the dark/shock compartment) (C57B/6 male mice; [4]): 47.87 | memory for the shock-associated environment (C57B/6 male mice): significantly improved memory

N[C@@H](C(=O)N1CCCC1)[C@@H](O)c1ccncc1 [Compound C]
escape latency of aged rats over the training period (aged rats; 10 mg/kg twice daily for 6 days prior to and during the experiment, compared with aged controls): decreased the escape latency | effect on escape latency, pooled data of the last 3 training sessions (aged rats; 10 mg/kg twice daily, aged rats versus aged controls): statistically significant | Mean Escape Latency Day 7 (aged rats; aged rats, 10 mg/kg p.o. twice daily, Day 7 (1st training day)): 69.9 ± 4.0 s | Mean Escape Latency Day 8 (aged rats; aged rats, 10 mg/kg p.o. twice daily, Day 8): 49.3 ± 5.4 s | Mean Escape Latency Day 9 (aged rats; aged rats, 10 mg/kg p.o. twice daily, Day 9): 41.0 ± 1.8 ⋄ sec | Mean Escape Latency Day 10 (aged rats; aged rats, 10 mg/kg p.o. twice daily, Day 10): 28.0 ± 2.2 s | Mean Escape Latency Day 11 (aged rats; aged rats, 10 mg/kg p.o. twice daily, Day 11): 30.4 ± 3.4 s

N[C@@H](C(=O)N1CCCCC1)[C@@H](O)c1ccsc1 [Compound B]
Training latency Day 0 (latency to enter the dark/shock compartment) (C57B/6 male mice; [1]): 6.58 | Testing latency Day 1 (latency to enter the dark/shock compartment) (C57B/6 male mice; [2]): 95.42 | Testing latency Day 4 (latency to enter the dark/shock compartment) (C57B/6 male mice; [2]): 81 | Testing latency Day 7 (latency to enter the dark/shock compartment) (C57B/6 male mice; [2]): 43.55 | Training latency Day 0 (latency to enter the dark/shock compartment) (C57B/6 male mice; [3]): 8.43 | Testing latency Day 1 (latency to enter the dark/shock compartment) (C57B/6 male mice; [4]): 126.27 | Testing latency Day 4 (latency to enter the dark/shock compartment) (C57B/6 male mice; [4]): 83.4 | Testing latency Day 7 (latency to enter the dark/shock compartment) (C57B/6 male mice; [4]): 56.22 | memory for the shock-associated environment (C57B/6 male mice): significantly improved memory
